Measurements taken from patent publication US12454675B2, “Method of increasing protein yield in mammalian cells in serum-free culture medium” (AGENCY FOR SCIENCE, TECHNOLOGY AND RESEARCH, priority 2016, dated 2025).

Legend:
SH87 cells = assay: SH87 fed-batch bioreactor cultures in PFCDM; format: cell-based, Chinese Hamster
Method: For each culture condition to be tested, SH87 was scaled up in PFCDM and inoculated into duplicate two (2) liter glass bioreactors (Sartorius, Germany) at a viable cell density of 3×10^5 cells/ml. Culture temperature, pH, dissolved oxygen and stir rate were maintained at 37° C., 7.1, 50% and 120 rpm respectively. The culture set points for glucose and glutamine were 0.5 g/l and 0.5 mM respectively, and predictive feeding was used to maintain these concentration levels by the addition of a concentrated DMEM-based protein-free feed and a 150 g/l glucose solution. Cell culture samples were collected and analyzed daily throughout the duration of the growth profile experiment until culture viabilities fell below 50%. When necessary, culture supernatant samples were stored at −20° C. for further analysis.
Since fed-batch culture is a popular mode for the manufacturing of monoclonal antibodies, the use of maltose in fed-batch cultures was evaluated. […] As such, it was evaluated whether maltose can be used to supplement glucose in fed-batch cultures to drive the cells towards a slower but more efficient metabolism: Using a common glucose concentration setpoint of 0.5 g/l, SH87 in media supplemented with 4 g/l glucose and 20 g/l maltose was fed daily with 50% of its calculated glucose requirement, while cultures of the same cells in media containing 4 g/l glucose was fed daily with 100% of its calculated glucose requirement. Duplicate bioreactor cultures were performed for each condition and the growth, biochemical and IgG titer profiles of these cultures were plotted in FIG. 7.
Additionally, the present disclosure investigated whether maltose supplementation in the feed medium can have further effect on fed-batch cultures with maltose-supplemented base medium. Using a common glucose concentration setpoint of 0.5 g/l, SH87 in media supplemented with 4 g/l glucose and 20 g/l maltose was fed daily with 50% of its calculated glucose requirement, using a sugar feed consisting of only glucose, or of glucose and maltose in a 1:1 ratio.

CHO-DG44 cells = assay: Disaccharides to support growth of CHO-DG44 cells in HyQ PF-CHO; format: cell-based, Chinese Hamster; conditions: 10 g/l sugar, 22 days
Excerpt: (§1) In (A) CHO-K1 cells were cultivated in a serum-free protein-free cell culture medium, HyQ PF-CHO, with 3.6 g/l of different sugars (maltose, sucrose, lactose, trehalose or glucose) as carbohydrate source. The viable cell densities (lined markers) and culture viabilities (marker only) of these cultures at the beginning and end of each passage over a period of 74 days were plotted. Cultures with sucrose, lactose or trehalose were terminated on Day 31 due to the decreased culture viabilities and reduced viable cell densities. The experiment was repeated with a seeding cell density of 1.0×10^6 cells/ml to obtain similar results. In (B) CHO-DG44 cells were cultivated with a seeding cell density of 1.0×10^6 cells/ml in a serum-free protein-free cell culture medium, HyQ PF-CHO, with 10 g/l of different sugars (maltose, sucrose, lactose, trehalose or glucose) as carbohydrate source. The viable cell densities (lined markers) and cell viabilities (marker only) of these cultures at the beginning and end of each passage over a period of 22 days were plotted. In (C) HEK293 cells were cultivated with a seeding cell density of 1.0×10^6 cells/ml in a protein-free chemically defined cell culture medium, PFCDM, with 10 g/l of different sugars (maltose, sucrose, lactose, trehalose or glucose) as carbohydrate source. The viable cell densities (lined markers) and cell viabilities (marker only) of these cultures at the beginning and end of each passage over a period of 22 days were plotted. Cultures with sucrose, lactose or trehalose were terminated on Day 14 due to the decreased culture viabilities and reduced viable cell densities.
To determine whether the same approach can be applied on other CHO cell lines, the use of disaccharides to support the growth of CHO-DG44 cells was evaluated. These cells were cultivated with 10 g/l of maltose, sucrose, lactose, trehalose or glucose as energy source in a serum-free protein-free cell culture medium HyQ PF-CHO. The viable cell densities and culture viabilities of these cultures at the beginning and end of each passage over a period of 22 days are shown in FIG. 1B.

[1] = tested on: SH87 (CHO-K1 cell line producing an anti-Her2 monoclonal antibody); assay: SH87 shake flask batch cultures in PFCDM with glucose and maltose; format: cell-based, Chinese Hamster; conditions: 20 g/l maltose supplemented vs 14 g/l glucose and 10 g/l maltose supplemented cultures
Method: Viable cell density and culture viability were determined by Trypan blue dye exclusion method using Vi-Cell XR Cell Viability Analyzer (Beckman Coulter, Brea, CA) according to manufacturer's instructions. For biochemical and other cell culture parameter analyses, 1 ml of culture sample was centrifuged at 8000 g for 10 minutes to obtain clarified supernatant. Concentrations of ammonium, glutamine, glucose and lactate were analyzed by the BioProfile 100 Plus (Nova Biomedical, Waltham, MA). Osmolality was measured using a vapor pressure osmometer (Vapro 5520, Wescor, Logan, UT), according to manufacturer's instructions. Maltose concentration was quantified using Maltose Colorimetric/Fluorometric Assay Kit (Biovision, Milpitas, CA), according to manufacturer's instructions. […] Cells were cultivated in single-use Erlenmeyer flasks (Corning), with a cell seeding density of 0.3×10^6 cells/ml in duplicates. Cell culture samples were collected and analyzed daily throughout the duration of the growth profile experiment until culture viabilities fell below 50%. When necessary, culture supernatant samples were stored at -20° C. for further analysis.

HEK293 cells = assay: Disaccharides to support growth of HEK293 cells in PFCDM; format: cell-based; conditions: 10 g/l sugar, seeding 1.0×10^6 cells/ml, 22 days
Excerpt: as §1

CHO-K1 cells = CHO-K1 cells in PFCDM with increasing concentration of maltose; format: cell-based, Chinese Hamster; conditions: maltose-adapted CHO-K1, PFCDM, maltose 10 g/l to 40 g/l
Excerpt: CHO-K1 cells adapted to PFCDM with 10 g/L of maltose was cultivated in PFCDM with 10, 20, 30 and 40 g/L maltose in batch shake flask cultures. The cultures were monitored till culture viabilities were lower than 50%, to obtain their (A) Viable cell densities (lined marker) and culture viabilities (marker only), and (B) Osmolality, (C) Glucose, (D) Lactate, (E) Glutamine and (F) Ammonium profiles. […] Even with the higher maltose concentration, lactate concentration was kept at a low level till viability started to drop on Day 6.
Examining glutamine consumption, while this was slower in the maltose culture compared to the glucose culture (FIG. 2D), it was likely due to the slower growth of the maltose culture. […] This hypothesis is supported by the ammonium production profiles: while the specific ammonium production rate was initially similar for both cultures, that for the glucose culture slowed considerably from Day 2 (FIG. 2G) to attain a final ammonium concentration of 0.14 g/l (FIG. 2E), whereas the specific ammonium production rate of the maltose culture continued at a similar rate till Day 5 to attain a higher final ammonium concentration of 0.20 g/1. […]

OC[C@H]1O[C@H](O[C@H]2[C@H](O)[C@@H](O)[C@H](O)O[C@@H]2CO)[C@H](O)[C@@H](O)[C@@H]1O [maltose]
effect of additional maltose in the feed medium on cell growth, viability, glutamine, osmolality and IgG titer profiles (SH87 cells; base 4 g/l glucose + 20 g/l maltose, feed glucose and maltose 1:1 vs glucose only): no additional effect | improvement in maximum IgG titers vs glucose-only fed-batch cultures (SH87 cells; fed-batch bioreactor): 23% | improvement in specific IgG productivities vs glucose-only fed-batch cultures (SH87 cells; fed-batch bioreactor): 55% | proliferation in serum-free protein-free culture medium with the sugar as sugar source (CHO-DG44 cells): can also proliferate | improvement in maximum IgG titer of batch culture [1]: 15% | proliferation in serum-free culture medium with the sugar as sugar source (HEK293 cells): can proliferate | proliferation with increased concentrations of maltose (CHO-K1 cells): proliferated faster
